# Reference: patent US12168676B2, “Microbially derived peptides and proteins for immunotherapy” (Genevive, Inc., priority 2019, dated 2024)
# “Also recorded” adds a separate entry of the source.
# Columns and labels:
# [1] = system: T cells isolated from mouse spleens; assay: Mouse T cell activation, anti-CD3 coated plates (Example 4); format: cell-based; conditions: 10 mcM peptide, anti-CD3 0.1 mcg/mL, 48 hours
# Experimental: 96-well culture plates were pre-coated with anti-CD3 (0.1 mcg/mL) in 200 mcL. The plates were incubated overnight at 4° C. The plates were washed with PBS three times before plating the cells (Balb/c splenocytes for T-cell isolation by EasySep™ #19851). The cells were plated at 100-200K/well in final volume of 200 mcL of AIM-V. Peptides (10mcM) or 2 mcg/mL anti-CD28 were added to the cells. The cells were incubated for 48 hours at 37° C.
# The incubated cells were used for flow cytometry analysis. SG-3-0020 increased expression of T cell activation markers and proliferation of CD4 and CD8 T cells isolated from mouse spleens (FIG. 11A).
# The supernatants were used for MSD analysis. SG-3-0020 increased secretion of effector cytokines by T cells isolated from mouse spleens. (FIG. 11B)
# [2] = system: Splenocytes isolated from naive male C57BL/6 mice; assay: Stimulation of murine naïve splenocytes (Example 1); format: cell-based, mouse; conditions: 10 μM peptide
# Source text: This example describes an initial screening assay to identify Bifidobacterium-derived peptides which can activate effector T cells, specifically, CD4 effector T cells which are characterized in part by a CD4^+ CD25^+ FoxP3^− phenotype and CD8 effector cells which are characterized in part by a CD8^+ CD25^+ FoxP3^− phenotype. Splenocytes isolated from naive male C57BL/6 mice (Taconic, 8-14 weeks of age) were resuspended in complete RPMI (RPMI containing 10% FBS plus 1% penicillin/streptomycin) to a final number of 8×10^5 cells/well in a flat-bottom 96-well plate. Cells were then stimulated with 0.05 μg/ml anti-CD3 antibody in the presence of: each peptide (10 μM in water) or ovalbumin peptide amino acids 323-339 (10 μM in water), water (Th0 min H2O), anti-CD3 antibody alone (Th0 min), or with 1 μg/ml anti-CD3, plus IL-12 (10 ng/ml), plus 5 μg/ml anti-IL-4 antibody (positive control to generate Th1 cells). Cells were incubated at 37° C., 5% CO2 for 48 h. See. FIG. 2A, FIG. 2B, and FIG. 2C.
# Levels of activated (Tact) CD4 (FIG. 2A) and CD8 (FIG. 2B) T cells, defined by absence of FoxP3 and high CD25 expression, were determined by multicolor flow cytometry. Levels of T cells were then normalized to levels of the T cells when the splenocytes were treated with the OV323-339 negative control peptide. See Levels of IL-2 (FIG. 2C) and IL-17 (FIG. 2D) in culture supernatants were quantified by Luminex analysis. Levels of Granzyme B expression on gated CD8 FoxP3^− T cells were analyzed by flow cytometry. Bars represent mean±SD. (vs. Th0+H2O) by Kruskall-Wallis with uncorrected Dunn's test.
# A dose response study was also performed using the above methods wherein naïve mouse splenocytes were treated with increasing doses of SG-3-0020 (1 μM, 5 μM, or 10 μM). Flow cytometry analysis was done to measure frequency of effector CD8 T cells (CD8^+, CD25^+, FoxP3), granzyme B expression on the effector CD8 T cells, and IL-2 expression.
# human T cells [3] = assay: Activation markers and cytokine secretion with or without anti-CD3, or with CD3/CD28 activator, T cells (Example 5); format: cell-based
# Experimental: (§1) Activation marker expression on T cells and PBMCs in the presence of peptides (10mcM) or anti-CD28 (10 mcg/mL) was determined after 48 hours of incubation, with or without 0.1 mcg/mL anti-CD3. The data were analyzed by flow cytometry (FIG. 13A-D).
# Cytokine secretion on T cells in the presence of peptides (10mcM) or anti-CD28 (10 mcg/mL) after 48 h of incubation, with or without 0.1 mcg/mL anti-CD3, was determined. The data were analyzed by MSD (FIG. 14).
# Human T cells were activated with ImmunoCult™ Human CD3/CD28 T Cell Activator in the presence of peptides (10mcM) and cytokine secretion was analyzed after 48 hours of incubation by MSD. […] Activation with anti-CD3 on both isolated T cells and PBMCs was required for SG-3-0020-mediated effects.
# PBMCs = assay: Activation marker expression with or without anti-CD3, PBMCs (Example 5); format: cell-based, human; conditions: 10 mcM, with or without 0.1 mcg/mL anti-CD3, 48 hours
# Experimental: as §1
# human T cells [4] = assay: Human T cell activation assay, anti-CD3 stimulated purified T cells (Example 2); format: cell-based
# Experimental: PBMCs were obtained from 5 individual human donors. […] Furthermore, incubation of the T cells with SG-3-0020 increased secretion of IL-2 and IFN-γ (FIG. 6B). […] Such activation may enhance immune action against a tumor in vivo with or without a co-therapy.
# human T cells [5] = assay: Phage binding to T cells, titers of eluted phages (Example 7)
# Experimental: The binding of SG-3-0020 phages to target cells (naïve T-cell, activated T-cell) was tested.
# Biotinylated peptide stock (1 mM) was diluted to 1 uM (×1,000-fold) with 1×PBS+2% BSA. 150 mcL of phages (multivalent display) were mixed with 70 mcL of 1×PBS+2% BSA. The solution was rotated at room temperature for 1 hour.
# The cells, either naïve T-cells (about 13×10^6 cells) or activated T-cells (about 16×10^6 cells) were thawed. The cells were then centrifuged at 1,500 for 5 min at 4° C., and the supernatant was aspirated. The cell pellets were washed with 5 mL of 1×PBS+2% BSA by pipetting. This was repeated such that the pellets were centrifuged and washed a total of 3 times.
# The cell pellets were resuspended with 1050 mcL of 1×PBS+2% BSA, and 100 mcL of phage (M13 bacteriophage G8P capsid antibody-FITC from antibodies-online Inc (Cat #: ABIN 125966)) were added into a well of 96-well plates (phage binding). 150 mcL of diluted biotinylated peptide were added into a well of 96-well plates (biotinylated peptide binding). 100 mcL of resuspended cells were added into the wells for phage binding and 50 mcL of resuspended cells were added into the wells for biotinylated peptide binding.
# The cells were put on the rocker and incubated at 4° C. for 2 hours for binding and then centrifuged at 1,500 for 5 min at 4° C. The supernatant was discarded. […]
# activated human T cell = assay: NanoString nCounter Human PanCancer Immune profiling of activated T cells (Example 6); format: cell-based; conditions: RNA, T cells of 5 donors, 10 μM vs vehicle
# Experimental: T cells were isolated from 5 individual blood donors and activated as described previously. RNA expression levels were determined by the NanoString nCounter Human PanCancer Immune profiling.
# CT26 mouse model = assay: CT26 mouse model, tumor volume, monotherapy; format: in vivo; conditions: preliminary results, data not shown
# [6] = system: CT26 tumor-bearing Balb/c mice; assay: Tumor infiltrating lymphocyte composition/activation in CT26 tumor-bearing Balb/c mice (Examples 3 and 9); format: in vivo, mouse
# Experimental: In vivo studies were performed to study the effects of SG-3-0020 administration on, e.g., immune cell activation and tumor size and to test different routes of administration of SG-3-0020 in CT26 tumor-bearing Balb/c mice and its effects on immune modulation. This mouse model is one of the most widely used mouse models for preclinical testing of new immunotherapeutic drugs (Grosso and Jure-Kunkel, 2013, Cancer Immun, 13:5).
# Mice were dosed i.v., i.p., p.t. with SG-3-0020 or PBS. For comparison mice were dosed with CD80-Fc or IgG1-Fc i.v. On Day 7, tumor samples were analyzed for tumor infiltrating lymphocyte (TIL) composition/activation by flow cytometry. The protocol used in this experiment is illustrated in FIG. 7A.
# BALB/c male mice (n=5-6/group, 8 weeks of age) were inoculated s.c. with CT26 colon carcinoma cells. SG-B was administered in PBS peritumorally daily at 2.5 mg/kg. Control mice were injected with the corresponding volume of PBS. At Day 13 (AH1 staining)) or Day 7 (Ki67, CD25, OX40 staining) excised tumors were washed with PBS, dissected into smaller fragments using scalpels, and further dissociated into single cell suspensions using the Miltenyi Tumor Dissociation Kit and the GentleMACS Octo dissociator. The digested tumors were filtered through pre-separation filters, washed with PBS, and then used for flow cytometry-based analysis. T lymphocytes were gated as CD4^+ or CD8^+ and then analyzed for surface marker expression by FlowJo 10.5.3. p values calculated by Mann-Whitney test.
# [7] = 0.05 μg/ml anti-CD3, 48 h, flow cytometry
# [8] = anti-CD3 stimulated purified T cells
# [9] = anti-CD3 stimulated purified T cells, 5 donors
# [10] = vs activated T cells without SG-3-0020, data not shown
# [11] = peri-tumoral injections twice daily (b.i.d.)
substance,measurement,setting,value
"SG-3-0020: Bifidobacterium breve-derived peptide, SEQ ID NO:1 MLSTKKTKTHDHYPCGRMRDPGWHDWRACLTHQGIEEDEWPV, chemically synthesized for the Examples (Bifidobacterium breve)",secretion of effector cytokines,[1]; MSD,increased
same,expression of T cell activation markers,[1]; flow cytometry,increased
same,proliferation of CD4 and CD8 T cells,[1]; flow cytometry,increased
same,frequency of activated (Tact) CD4 T cells (CD25+/FoxP3-),[2]; [7],increase; also recorded: enhance
same,frequency of activated (Tact) CD8 T cells (CD25+/FoxP3-),[2]; [7],increase; also recorded: enhance
same,IL-2 secretion in culture supernatants,"[2]; 48 h, Luminex",facilitate
same,IL-17 secretion in culture supernatants,"[2]; 48 h, Luminex",facilitate
same,Granzyme B expression in CD8 T cells,"[2]; 48 h, flow cytometry",promote induction
same,"dependence of SG-3-0020-mediated effects on activation with anti-CD3, isolated T cells","human T cells [3]; 10 mcM, with or without 0.1 mcg/mL anti-CD3, 48 hours",required
same,cytokine secretion in combination with anti-CD28 activation,"human T cells [3]; ImmunoCult Human CD3/CD28 T Cell Activator, 10 mcM peptide, 48 hours, MSD",increases activity
same,"dependence of SG-3-0020-mediated effects on activation with anti-CD3, PBMCs",PBMCs,required
same,IFN-γ secretion,human T cells [4]; [8],increased
same,IL-2 secretion,human T cells [4]; [8],increased
same,IL-10 secretion,human T cells [4]; [8],increase
same,TNF-α secretion,human T cells [4]; [8],increase
same,PD-1 expression on CD4+ cells,human T cells [4]; [9],increased
same,PD-1 expression on CD8+ cells,human T cells [4]; [9],increased
same,"cytokine-stimulating activity, donors responding",human T cells [4]; purified T cell system in the presence of anti-CD3 antibody,5/5
same,CD4+CD25+ T cells,human T cells [4]; [10],increase
same,CD4+ICOS+ T cells,human T cells [4]; [10],increase
same,CD4+OX40+ T cells,human T cells [4]; [10],increase
same,CD8+ICOS+ T cells,human T cells [4]; [10],increase
same,CD8+OX40+ T cells,human T cells [4]; [10],increase
same,CD8CD25+ T cells,human T cells [4]; [10],increase
same,binding to human T cells,"human T cells [5]; FIG. 17, phage titer",binds
same,"phage titer, binding to the activated T-cells compared to empty phages","human T cells [5]; multivalent display phage, 4° C., 2 hours",more bound
same,CD96 expression,activated human T cell,decrease
same,CTSL expression,activated human T cell,increase
same,CXCL10 expression,activated human T cell,decrease
same,CXCR6 expression,activated human T cell,decrease
same,DUSP6 expression,activated human T cell,increase
same,GZMK expression,activated human T cell,decrease
same,IL-2 expression,activated human T cell,increase
same,IL-3 expression,activated human T cell,increase
same,IL-9 expression,activated human T cell,increase
same,IL-10 expression,activated human T cell,increase
same,IL-21 expression,activated human T cell,increase
same,IL-24 expression,activated human T cell,increase
same,IRF1 expression,activated human T cell,decrease
same,ISG20 expression,activated human T cell,decrease
same,LY9 expression,activated human T cell,decrease
same,SLAMF7 expression,activated human T cell,decrease
same,SMAD3 expression,activated human T cell,decrease
same,STAT1 expression,activated human T cell,decrease
same,TCF7 expression,activated human T cell,decrease
same,tumor volume,CT26 mouse model,decrease
same,CD8+CD25+ cells in tumor infiltrating lymphocytes,"[6]; Day 7, flow cytometry",increase
same,CD8+Ki67+ cells in tumor infiltrating lymphocytes,"[6]; Day 7, flow cytometry",increase
same,CD8+OX40+ cells in tumor infiltrating lymphocytes,"[6]; Day 7, flow cytometry",increase
same,NK cells in tumor infiltrating lymphocytes,"[6]; Day 7, flow cytometry",increase
same,Tetramer staining (AH1 epitope),[6]; Day 13,positive effect
same,activated CD8+ T cell frequency within the TIL compartment,"[6]; mouse, in vivo",increases
same,NK cell frequency in the TIL compartment,[6]; [11],increase
same,activated CD8+ T cell frequency in the TIL compartment,[6]; [11],increase
